Patent US20110250266A1, “LIPOSOMAL SYSTEMS COMPRISING SPHINGOMYELIN” (Yissum Research Development Company of the Hebrew …, priority 2008, published 2011)
Values joined by “and” are separate entries in the source; they are usually repeats but may differ in a detail not shown here. Equal values may be shown once. Where a name gives a salt, the structure may show the parent alone.

Experiments:
[1] = tested on: Mice (male Swiss-Webster); test: Analgesic efficacy in mouse model (electrical stimulation of abdominal skin, vocalization threshold); format: in vivo; set-up: key: 1 = analgesia; 0 = no analgesia; 10 = partial analgesia
Description: Testing for analgesia was done by electrical stimulation of the skin directly overlying the abdomen at the site of injection using a current generator (model S48, Grass Instruments).
Mice (male Swiss-Webster, 26±3 gr) were tested prior to injection to determine the vocalization threshold than were injected with encapsulation BUP liposomes than determine analgesic duration (G. J. Grant et al, pharmaceutical research, vol 18, no. 3, 336-343, 2001).
In order to evaluate the effect of altering the volume and BUP concentration of the injection, in each group, three mice received 150 μL of the 2% formulation and 3 mice received 300 μL of a 1:1 diluted 2% formulation.
In these Tables, an numeric score of “1” denotes full analgesia, a numeric score of “0” was given when there was no analgesic effect, and a numeric value of “10” when there was partial analgesia.
As indicated above, the numerical score to the spreadsheet was introduced for the evaluation of the analgesic effect of various liposome preparations performance in vivo: For each time period (e.g. 4 hrs, 8 hrs etc) a numeric value of 1 was given if the anesthesia was complete; 10 or 0.5 was given when analgesia was partial (incomplete) and 0 for no anesthesia. The mean for each subgroup was calculated separately (i.e. 1% 300 μl, 2% 150 μg).

mouse = test: Maximal tolerated dose of free BUP; format: in vivo
[2] = individual mice, Bup conc 0.25%, volume 150 ul, 0.375 mg Bup
[3] = individual mice, Bup conc 0.25%, volume 150 ul, 0.375 mg Bup, hydrochloride
[4] = individual mice, Bup conc 0.25%, volume 300 ul, 0.75 mg Bup
[5] = individual mice, Bup conc 0.25%, volume 300 ul, 0.75 mg Bup, hydrochloride
[6] = individual mice, Bup conc 0.50%, volume 150 ul, 0.75 mg Bup
[7] = individual mice, Bup conc 0.50%, volume 150 ul, 0.75 mg Bup, hydrochloride
[8] = mice, 0.25%, 150 ul, 0.375 mg Bup
[9] = mice, 0.25%, 150 ul, 0.375 mg Bup, hydrochloride
[10] = mice, 0.25%, 300 ul, 0.75 mg Bup
[11] = mice, 0.25%, 300 ul, 0.75 mg Bup, hydrochloride
[12] = mice, 0.50%, 150 ul, 0.75 mg Bup
[13] = mice, 0.50%, 150 ul, 0.75 mg Bup, hydrochloride

CCCCN1CCCCC1C(=O)Nc1c(C)cccc1C (stereo not drawn) [Standard Bupivacaine, Bupivacaine hydrochloride]
Analgesic effect score at 15 min [1, 2]: 1 | Analgesic effect score at 30 min [1, 2]: 1 | Analgesic effect score at 45 min [1, 2]: 1 | Analgesic effect score at 60 min [1, 3]: 0 (5×) and 1 (2×) and 10 | Analgesic effect score at 75 min [1, 3]: 0 (7×) and 10 | Analgesic effect score at 90 min [1, 2]: 0 | Analgesic effect score at 15 min [1, 4]: 1 | Analgesic effect score at 30 min [1, 4]: 1 | Analgesic effect score at 45 min [1, 4]: 1 | Analgesic effect score at 60 min [1, 4]: 1 | Analgesic effect score at 75 min [1, 5]: 0 and 1 (7×) | Analgesic effect score at 90 min [1, 5]: 0 and 1 (5×) and 10 (2×) | Analgesic effect score at 105 min [1, 5]: 0 (5×) and 10 and 1 (2×) | Analgesic effect score at 120 min ([1]; individual mice, Bup conc 0.25%, volume 300 ul, 0.75 mg Bup, 120 min, hydrochloride): 0 (7×) and 10 | Analgesic effect score at 135 min ([1]; individual mice, Bup conc 0.25%, volume 300 ul, 0.75 mg Bup, 135 min): 0 | Analgesic effect score at 15 min [1, 6]: 1 | Analgesic effect score at 30 min [1, 6]: 1 | Analgesic effect score at 45 min [1, 6]: 1 | Analgesic effect score at 60 min [1, 7]: 1 (7×) and 10 | Analgesic effect score at 75 min [1, 7]: 1 (6×) and 0 and 10 | Analgesic effect score at 90 min [1, 7]: 0 (4×) and 10 (2×) and 1 (2×) | Analgesic effect score at 105 min [1, 6]: 0 | analgesia 15 min [1, 8]: 1 | analgesia 30 min [1, 8]: 1 | analgesia 45 min [1, 8]: 1 | analgesia 60 min [1, 9]: 0 and 1 and 10 | analgesia 75 min [1, 9]: 0 and 10 | analgesia 90 min [1, 8]: 0 | analgesia 15 min [1, 10]: 1 | analgesia 30 min [1, 10]: 1 | analgesia 45 min [1, 10]: 1 | analgesia 60 min [1, 10]: 1 | analgesia 75 min [1, 11]: 0 and 1 | analgesia 90 min [1, 11]: 0 and 1 and 10 | analgesia 105 min [1, 11]: 0 and 10 and 1 | analgesia 120 min ([1]; mice, 0.25%, 300 ul, 0.75 mg Bup, 120 min, hydrochloride): 0 and 10 | analgesia 135 min ([1]; mice, 0.25%, 300 ul, 0.75 mg Bup, 135 min): 0 | analgesia 15 min [1, 12]: 1 | analgesia 30 min [1, 12]: 1 | analgesia 45 min [1, 12]: 1 | analgesia 60 min [1, 13]: 1 and 10 | analgesia 75 min [1, 13]: 1 and 0 and 10 | analgesia 90 min [1, 13]: 0 and 10 and 1 | analgesia 105 min [1, 12]: 0 | maximal tolerated dose, MTD (mouse): 0.75 mg/mouse
